In paper PMC2096555 (Purinergic Signalling, 2005):
Several values for one entry are separate records, joined by “and”; a condition that tells them apart may be missing. Identical values can stand only once. One block for each compound: values may come before it.

Legend:
[1] = target: T1, rat NTPDase1 (Rattus norvegicus, UniProt P97687); type: biochemical
T1 sequence (P97687 1-511): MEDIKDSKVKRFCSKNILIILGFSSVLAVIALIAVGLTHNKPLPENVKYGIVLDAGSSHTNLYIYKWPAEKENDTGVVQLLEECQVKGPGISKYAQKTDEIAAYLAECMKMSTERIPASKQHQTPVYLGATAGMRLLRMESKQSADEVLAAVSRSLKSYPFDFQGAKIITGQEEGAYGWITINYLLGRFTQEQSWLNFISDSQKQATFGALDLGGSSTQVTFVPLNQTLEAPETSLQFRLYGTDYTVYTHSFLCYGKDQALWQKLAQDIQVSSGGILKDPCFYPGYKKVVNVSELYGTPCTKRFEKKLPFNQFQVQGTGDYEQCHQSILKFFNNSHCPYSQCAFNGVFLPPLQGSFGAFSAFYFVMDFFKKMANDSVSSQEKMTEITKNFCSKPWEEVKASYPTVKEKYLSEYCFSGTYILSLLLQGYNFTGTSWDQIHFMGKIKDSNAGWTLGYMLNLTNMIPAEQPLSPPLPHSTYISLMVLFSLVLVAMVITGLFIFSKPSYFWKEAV

[2] = target: T2, rat NTPDase2 (Rattus norvegicus, UniProt O35795); type: biochemical
T2 sequence (O35795 1-495): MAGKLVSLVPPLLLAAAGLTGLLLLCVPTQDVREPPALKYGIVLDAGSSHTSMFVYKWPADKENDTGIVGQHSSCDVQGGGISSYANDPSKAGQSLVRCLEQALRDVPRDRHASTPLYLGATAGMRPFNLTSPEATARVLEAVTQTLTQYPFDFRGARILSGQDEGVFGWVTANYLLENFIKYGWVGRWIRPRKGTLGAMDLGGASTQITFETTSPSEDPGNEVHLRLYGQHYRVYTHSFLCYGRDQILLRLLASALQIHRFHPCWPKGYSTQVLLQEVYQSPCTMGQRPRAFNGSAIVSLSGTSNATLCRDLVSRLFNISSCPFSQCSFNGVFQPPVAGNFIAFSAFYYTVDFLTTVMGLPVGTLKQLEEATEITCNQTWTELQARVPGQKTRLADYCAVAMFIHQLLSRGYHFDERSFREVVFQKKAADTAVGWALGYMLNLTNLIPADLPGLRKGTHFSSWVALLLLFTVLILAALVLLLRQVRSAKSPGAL

[3] = target: T3, rat NTPDase3 (Rattus norvegicus, UniProt A6I415); type: biochemical
T3 sequence (A6I415 1-529): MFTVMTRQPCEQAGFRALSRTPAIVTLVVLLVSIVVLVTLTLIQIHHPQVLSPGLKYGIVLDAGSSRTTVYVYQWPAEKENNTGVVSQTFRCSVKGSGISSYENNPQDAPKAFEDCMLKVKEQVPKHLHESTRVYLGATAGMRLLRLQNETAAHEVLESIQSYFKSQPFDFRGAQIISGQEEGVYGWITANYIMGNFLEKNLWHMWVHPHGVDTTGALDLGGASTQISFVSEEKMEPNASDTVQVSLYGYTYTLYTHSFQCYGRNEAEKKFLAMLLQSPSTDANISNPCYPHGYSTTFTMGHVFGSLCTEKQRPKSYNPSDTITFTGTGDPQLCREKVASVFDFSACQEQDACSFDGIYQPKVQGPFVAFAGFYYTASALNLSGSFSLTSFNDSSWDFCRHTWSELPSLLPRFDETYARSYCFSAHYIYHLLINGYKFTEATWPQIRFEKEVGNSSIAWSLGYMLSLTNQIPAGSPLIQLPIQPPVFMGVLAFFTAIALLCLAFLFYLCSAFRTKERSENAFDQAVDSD

[4] = test system: human NTPDase1; conditions: read-out: Reported Km human NTPDase1; ATP; cited from earlier work
[5] = test system: mouse NTPDase1; conditions: read-out: Reported Km mouse NTPDase1; ATP; cited from earlier work
[6] = test system: mouse NTPDase2; conditions: read-out: Reported Km mouse NTPDase2; ATP; no reference given; cited from earlier work
[7] = test system: human NTPDase3; conditions: read-out: Reported Km human NTPDase3; ATP; respectively ref 32, 40; cited from earlier work
[8] = test system: mouse NTPDase3; conditions: read-out: Reported Km mouse NTPDase3; ATP; cited from earlier work
[9] = test system: recombinant rat NTPDase1; conditions: read-out: Reported Km recombinant rat NTPDase1; ATP; cited from earlier work
[10] = target: T1, rat NTPDase1; type: biochemical; remark: listed apart in the source
[11] = target: T2, rat NTPDase2; type: biochemical; remark: listed apart in the source
[12] = target: T3, rat NTPDase3; type: biochemical; remark: listed apart in the source
[13] = test system: rat superior cervical ganglionic cells; conditions: at 10 µM concentration; cited from earlier work
[14] = substrate ATP, membrane preparation

Km ([1]; read-out: Km ± SEM NTPDase1, substrate ATP 10-1000 µM, product AMP): 76 ± 12 µM
Vmax ± SEM NTPDase1 [1, 14]: 0.023 ± 0.002 μmol/min/mg protein
Km ([2]; read-out: Km ± SEM NTPDase2, substrate ATP 25-1000 µM, product ADP): 203 ± 8 µM
Vmax ± SEM NTPDase2 [2, 14]: 0.021 ± 0.002 μmol/min/mg protein
Km ([3]; read-out: Km ± SEM NTPDase3, substrate ATP 25-1000 µM, product ADP): 311 ± 4 µM
Vmax ± SEM NTPDase3 [3, 14]: 0.010 ± 0.001 μmol/min/mg protein
SMILES: Nc1ncnc2c1ncn2[C@@H]1O[C@H](COP(=O)(O)OP(=O)(O)OP(=O)(O)O)[C@@H](O)[C@H]1O [ATP]
Km [4]: 17 µM
Km [5]: 12 µM
Km [6]: 37 µM
Km [7]: 75 µM and 128 µM
Km [8]: 11 µM
Km [9]: 75 µM

Ki [10]: > 1000 µM
Ki [11]: > 1000 µM
Ki [12]: > 1000 µM
SMILES: OCCN(CCO)c1nc(N2CCCCC2)c2nc(N(CCO)CCO)nc(N3CCCCC3)c2n1 [Dipyridamole, dipyridamole]
inhibition of ATP hydrolysis [13]: effective inhibitor

Ki for NTPDase1 relative to NTPDase2 ([10]; ratio of Ki values): five fold higher
SMILES: Cc1ccc(C(=O)Nc2ccc(S(=O)(=O)O)c3cc(S(=O)(=O)O)cc(S(=O)(=O)O)c23)cc1NC(=O)c1cccc(NC(=O)Nc2cccc(C(=O)Nc3cc(C(=O)Nc4ccc(S(=O)(=O)O)c5cc(S(=O)(=O)O)cc(S(=O)(=O)O)c45)ccc3C)c2)c1 [Suramin, suramin]
